Data taken from patent US9062124B2, “GIP-based mixed agonists for treatment of metabolic disorders and obesity” (priority 2008, dated 2015).
Where a SMILES comes first, the peptide text is derived from it. Bridges are numbered along the chain shown (N, C = ends). [ ]: non-standard residue; d: D form. Abu = CC[C@H](N)C(=O)O; Aib = CC(C)(N)C(=O)O

Assays:
Assay type in all cases: cell-based
glucagon receptor = molecular target: T1, glucagon receptor (Homo sapiens, UniProt P47871); test: cAMP synthesis functional assay (firefly luciferase reporter in HEK293 cells), glucagon receptor
T1 construct: expressed in transfected cells; host or cells: HEK293

GIP receptor = molecular target: T2, GIP receptor (Homo sapiens, UniProt P48546); test: cAMP synthesis functional assay (firefly luciferase reporter in HEK293 cells), GIP receptor
T2 construct: expressed in transfected cells; host or cells: HEK293
T2 sequence (P48546 22-466): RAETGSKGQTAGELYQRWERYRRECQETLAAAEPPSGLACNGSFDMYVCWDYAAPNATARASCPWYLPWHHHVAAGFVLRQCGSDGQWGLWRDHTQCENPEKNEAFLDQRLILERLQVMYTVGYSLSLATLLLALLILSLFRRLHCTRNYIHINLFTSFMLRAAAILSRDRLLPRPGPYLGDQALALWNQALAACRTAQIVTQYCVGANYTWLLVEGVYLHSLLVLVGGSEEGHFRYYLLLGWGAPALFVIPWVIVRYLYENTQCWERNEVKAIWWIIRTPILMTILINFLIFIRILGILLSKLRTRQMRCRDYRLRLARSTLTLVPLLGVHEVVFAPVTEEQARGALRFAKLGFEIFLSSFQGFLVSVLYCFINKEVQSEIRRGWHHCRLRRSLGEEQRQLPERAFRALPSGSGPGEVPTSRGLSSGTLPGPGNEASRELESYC

[1] = tested on: glucagon receptor, GLP-1 receptor or GIP receptor; test: Agonist profile across receptors assigned from the cAMP reporter assay data; settings: assigned from the in vitro EC50 data of Tables 1-4
GLP-1 receptor = molecular target: T3, GLP-1 receptor (Homo sapiens, UniProt P43220); test: cAMP synthesis functional assay (firefly luciferase reporter in HEK293 cells), GLP-1 receptor
T3 construct: expressed in transfected cells; host or cells: HEK293

[2] = Glucagon Receptor EC50, cAMP luciferase reporter assay as in Example 16
[3] = relative to the standard (Std.) EC50 of the same run
[4] = GIP Receptor EC50, cAMP luciferase reporter assay as in Example 16
[5] = GLP-1 Receptor EC50, cAMP luciferase reporter assay as in Example 16
[6] = Table 1, relative to the native hormone of the indicated receptor

T1 sequence (P47871 26-477): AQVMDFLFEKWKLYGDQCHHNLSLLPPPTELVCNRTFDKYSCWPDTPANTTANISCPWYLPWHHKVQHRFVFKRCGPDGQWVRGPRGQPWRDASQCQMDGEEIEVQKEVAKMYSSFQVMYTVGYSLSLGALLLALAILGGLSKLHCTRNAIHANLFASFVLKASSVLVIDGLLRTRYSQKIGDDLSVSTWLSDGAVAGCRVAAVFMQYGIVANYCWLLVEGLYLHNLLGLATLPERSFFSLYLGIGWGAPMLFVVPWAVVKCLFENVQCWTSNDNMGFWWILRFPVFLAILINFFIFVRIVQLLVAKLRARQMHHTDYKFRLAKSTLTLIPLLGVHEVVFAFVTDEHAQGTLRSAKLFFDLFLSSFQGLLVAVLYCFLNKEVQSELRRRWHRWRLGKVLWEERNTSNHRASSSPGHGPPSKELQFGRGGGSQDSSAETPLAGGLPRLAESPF
T3 sequence (P43220 24-463, species assumed): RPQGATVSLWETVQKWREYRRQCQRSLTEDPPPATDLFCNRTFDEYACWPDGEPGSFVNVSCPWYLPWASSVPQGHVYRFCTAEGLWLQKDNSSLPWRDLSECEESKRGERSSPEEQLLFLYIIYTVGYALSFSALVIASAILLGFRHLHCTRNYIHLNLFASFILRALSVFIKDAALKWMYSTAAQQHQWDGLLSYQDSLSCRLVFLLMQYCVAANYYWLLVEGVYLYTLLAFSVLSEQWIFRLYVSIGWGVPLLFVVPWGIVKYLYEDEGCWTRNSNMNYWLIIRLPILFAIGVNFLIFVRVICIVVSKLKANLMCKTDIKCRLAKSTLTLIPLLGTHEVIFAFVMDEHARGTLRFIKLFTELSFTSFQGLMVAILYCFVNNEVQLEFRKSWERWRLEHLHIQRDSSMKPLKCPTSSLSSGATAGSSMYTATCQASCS

SMILES	EC50 (glucagon receptor; [2])	Glucagon Receptor relative activity (glucagon receptor; [3])	EC50 (GIP receptor; [4])	GIP Receptor relative activity (GIP receptor; [3])	receptor activity profile (glucagon / GLP-1 / GIP agonism) [1]	EC50 (GLP-1 receptor; [5])	GLP-1 Receptor relative activity (GLP-1 receptor; [3])	Glucagon Receptor relative activity (glucagon receptor; Table 2)	GIP Receptor relative activity (GIP receptor; Table 2)	GLP-1 Receptor relative activity (GLP-1 receptor; Table 2)	other results
CCCCCCCCCCCCCCCC(=O)NCCCC[C@H](NC(=O)[C@H](CO)NC(=O)[C@@H]1CCCN1C(=O)[C@@H]1CCCN1C(=O)[C@@H]1CCCN1C(=O)[C@H](C)NC(=O)CNC(=O)[C@H](CO)NC(=O)[C@H](CO)NC(=O)[C@@H]1CCCN1C(=O)CNC(=O)CNC(=O)[C@H](CC(N)=O)NC(=O)[C@H](CCSC)NC(=O)[C@H](CC(C)C)NC(=O)[C@H](Cc1c[nH]c2ccccc12)NC(=O)[C@H](CS)NC(=O)[C@@H](NC(=O)[C@H](Cc1ccccc1)NC(=O)[C@H](CCC(=O)O)NC(=O)C(C)(C)NC(=O)[C@H](C)NC(=O)[C@H](C)NC(=O)[C@H](CCC(N)=O)NC(=O)[C@H](CCCCN)NC(=O)[C@H](CC(=O)O)NC(=O)[C@H](CC(C)C)NC(=O)[C@H](Cc1ccc(O)cc1)NC(=O)[C@@H](NC(=O)[C@H](CO)NC(=O)[C@H](Cc1ccc(O)cc1)NC(=O)[C@H](CC(=O)O)NC(=O)[C@H](CO)NC(=O)[C@@H](NC(=O)[C@H](Cc1ccccc1)NC(=O)[C@@H](NC(=O)CNC(=O)[C@H](CCC(N)=O)NC(=O)C(C)(C)NC(=O)[C@@H](N)Cc1ccc(O)cc1)[C@@H](C)O)[C@@H](C)O)[C@@H](C)CC)C(C)C)C(N)=O [mt-297]	0.0132 nM	362.12%	0.0168 nM	97.02%	exhibited activity at the GIP, GLP-1, and glucagon receptors	0.0129 nM	125.58%	–	–	–	–
CC[C@H](C)[C@H](NC(=O)[C@H](CO)NC(=O)[C@H](Cc1ccc(O)cc1)NC(=O)[C@H](CC(=O)O)NC(=O)[C@H](CO)NC(=O)[C@@H](NC(=O)[C@H](Cc1ccccc1)NC(=O)[C@@H](NC(=O)CNC(=O)[C@H](CCC(N)=O)NC(=O)C(C)(C)NC(=O)[C@@H](N)Cc1ccc(O)cc1)[C@@H](C)O)[C@@H](C)CC)C(=O)N[C@@H](Cc1ccc(O)cc1)C(=O)N[C@@H](CC(C)C)C(=O)N[C@@H](CC(=O)O)C(=O)N[C@H]1CCC(=O)NCCCC[C@@H](C(=O)N[C@@H](CCC(=O)O)C(=O)N[C@@H](Cc2ccccc2)C(=O)N[C@H](C(=O)N[C@@H](CS)C(=O)N[C@@H](Cc2c[nH]c3ccccc23)C(=O)N[C@@H](CC(C)C)C(=O)N[C@@H](CC(C)C)C(=O)N[C@@H](C)C(=O)NCC(N)=O)C(C)C)NC(=O)[C@H](C)NC(=O)[C@H](C)NC(=O)[C@H](CCC(N)=O)NC1=O [mt-177] (H-Y[Aib]QGTFISDYSIYLDEQAAKEFVCWLLAG-NH2; lactam 16-20; N-terminus assumed)	–	–	–	–	exemplary GIP/glucagon co-agonist peptides	–	–	–	–	–	EC50 (glucagon receptor; Glucagon Receptor EC50, nM, Table 1): 0.095 nM; Glucagon Receptor relative activity (glucagon receptor; [6]): 38.95%; EC50 (GIP receptor; GIP Receptor EC50, nM, Table 1): 0.114 nM; GIP Receptor relative activity (GIP receptor; [6]): 19.30%; EC50 (GLP-1 receptor; GLP-1 Receptor EC50, nM, Table 1): 21 nM; GLP-1 Receptor relative activity (GLP-1 receptor; [6]): 0.10%
CC[C@H](C)[C@H](NC(=O)[C@H](CO)NC(=O)[C@H](Cc1ccc(O)cc1)NC(=O)[C@H](CC(=O)O)NC(=O)[C@H](CO)NC(=O)[C@@H](NC(=O)[C@H](Cc1ccccc1)NC(=O)[C@@H](NC(=O)CNC(=O)[C@H](CCC(N)=O)NC(=O)C(C)(C)NC(=O)[C@@H](N)Cc1ccc(O)cc1)[C@@H](C)O)[C@@H](C)O)C(=O)N[C@@H](Cc1ccc(O)cc1)C(=O)N[C@@H](CC(C)C)C(=O)N[C@@H](CC(=O)O)C(=O)N[C@@H](CCC(=O)O)C(=O)N[C@@H](CCC(N)=O)C(=O)N[C@@H](C)C(=O)N[C@@H](C)C(=O)NC(C)(C)C(=O)N[C@@H](CCC(=O)O)C(=O)N[C@@H](Cc1ccccc1)C(=O)N[C@H](C(=O)N[C@@H](CS)C(=O)N[C@@H](Cc1c[nH]c2ccccc12)C(=O)N[C@@H](CC(C)C)C(=O)N[C@@H](CC(C)C)C(=O)N[C@@H](C)C(=O)NCC(N)=O)C(C)C [mt-258] (H-Y[Aib]QGTFTSDYSIYLDEQAA[Aib]EFVCWLLAG-NH2; N-terminus assumed)	–	–	–	–	exhibited activities of glucagon/GLP-1/GIP triagonists	–	–	14.08%	16.84%	58.91%	–
CC[C@H](C)[C@H](NC(=O)[C@H](CO)NC(=O)[C@H](Cc1ccc(O)cc1)NC(=O)[C@H](CC(=O)O)NC(=O)[C@H](CO)NC(=O)[C@@H](NC(=O)[C@H](Cc1ccccc1)NC(=O)[C@@H](NC(=O)CNC(=O)[C@H](CCC(N)=O)NC(=O)C(C)(C)NC(=O)[C@@H](N)Cc1ccc(O)cc1)[C@@H](C)O)[C@@H](C)O)C(=O)N[C@@H](Cc1ccc(O)cc1)C(=O)N[C@@H](CC(C)C)C(=O)N[C@@H](CC(=O)O)C(=O)N[C@@H](CCCCN)C(=O)N[C@@H](CCC(N)=O)C(=O)N[C@@H](C)C(=O)N[C@@H](C)C(=O)NC(C)(C)C(=O)N[C@@H](CCC(=O)O)C(=O)N[C@@H](Cc1ccccc1)C(=O)N[C@H](C(=O)N[C@@H](CS)C(=O)N[C@@H](Cc1c[nH]c2ccccc12)C(=O)N[C@@H](CC(C)C)C(=O)N[C@@H](CC(C)C)C(=O)N[C@@H](C)C(=O)NCC(=O)NCC(=O)N1CCC[C@H]1C(=O)N[C@@H](CO)C(=O)N[C@@H](CO)C(=O)NCC(=O)N[C@@H](C)C(=O)N1CCC[C@H]1C(=O)N1CCC[C@H]1C(=O)N1CCC[C@H]1C(=O)N[C@@H](CO)C(=O)N[C@@H](CCCCN)C(N)=O)C(C)C [mt-289]	0.0766 nM	67.75%	0.0234 nM	46.58%	exhibited activity at the GIP, GLP-1, and glucagon receptors	0.0144 nM	81.25%	–	–	–	–
CC[C@H](NC(=O)[C@H](Cc1ccccc1)NC(=O)[C@@H](NC(=O)CNC(=O)[C@H](CCC(N)=O)NC(=O)C(C)(C)NC(=O)[C@@H](N)Cc1ccc(O)cc1)[C@@H](C)O)C(=O)N[C@@H](CO)C(=O)N[C@@H](CC(=O)O)C(=O)N[C@@H](Cc1ccc(O)cc1)C(=O)N[C@@H](CO)C(=O)N[C@H](C(=O)N[C@@H](Cc1ccc(O)cc1)C(=O)N[C@@H](CC(C)C)C(=O)N[C@@H](CC(=O)O)C(=O)N[C@@H](CCCCN)C(=O)N[C@@H](CCC(N)=O)C(=O)N[C@@H](C)C(=O)N[C@@H](C)C(=O)NC(C)(C)C(=O)N[C@@H](CCC(=O)O)C(=O)N[C@@H](Cc1ccccc1)C(=O)N[C@H](C(=O)N[C@@H](CC(N)=O)C(=O)N[C@@H](Cc1c[nH]c2ccccc12)C(=O)N[C@@H](CC(C)C)C(=O)N[C@@H](CC(C)C)C(=O)N[C@@H](C)C(=O)NCC(=O)NCC(=O)N1CCC[C@H]1C(=O)N[C@@H](CO)C(=O)N[C@@H](CO)C(=O)NCC(=O)N[C@@H](C)C(=O)N1CCC[C@H]1C(=O)N1CCC[C@H]1C(=O)N1CCC[C@H]1C(=O)N[C@@H](CO)C(=O)N[C@@H](CS)C(N)=O)C(C)C)[C@@H](C)CC [mt-325] (H-Y[Aib]QGTF[Abu]SDYSIYLDKQAA[Aib]EFVNWLLAGGPSSGAPPPSC-NH2; N-terminus assumed)	–	86.45%	–	111.43%	exhibited activity at the glucagon and GIP receptors, but not at the GLP-1 receptor	–	0.83%	–	–	–	–
CC[C@H](C)[C@H](NC(=O)[C@H](CO)NC(=O)[C@H](Cc1ccc(O)cc1)NC(=O)[C@H](CC(=O)O)NC(=O)[C@H](CO)NC(=O)[C@@H](NC(=O)[C@H](Cc1ccccc1)NC(=O)[C@@H](NC(=O)CNC(=O)[C@H](CCC(N)=O)NC(=O)C(C)(C)NC(=O)[C@@H](N)Cc1ccc(O)cc1)[C@@H](C)O)[C@@H](C)O)C(=O)N[C@@H](Cc1ccc(O)cc1)C(=O)N[C@@H](CC(C)C)C(=O)N[C@@H](CC(=O)O)C(=O)N[C@@H](CCC(=O)O)C(=O)N[C@@H](CCC(N)=O)C(=O)N[C@@H](C)C(=O)N[C@@H](C)C(=O)NC(C)(C)C(=O)N[C@@H](CCC(=O)O)C(=O)N[C@@H](Cc1ccccc1)C(=O)N[C@H](C(=O)N[C@@H](CC(N)=O)C(=O)N[C@@H](Cc1c[nH]c2ccccc12)C(=O)N[C@@H](CC(C)C)C(=O)N[C@@H](CC(C)C)C(=O)N[C@@H](C)C(=O)NCC(=O)NCC(=O)N1CCC[C@H]1C(=O)N[C@@H](CO)C(=O)N[C@@H](CO)C(=O)NCC(=O)N[C@@H](C)C(=O)N1CCC[C@H]1C(=O)N1CCC[C@H]1C(=O)N1CCC[C@H]1C(=O)N[C@@H](CO)C(=O)N[C@@H](CS)C(N)=O)C(C)C [mt-251] (H-Y[Aib]QGTFTSDYSIYLDEQAA[Aib]EFVNWLLAGGPSSGAPPPSC-NH2; N-terminus assumed)	–	–	–	–	exhibited activity of a GLP-1/GIP co-agonist	–	–	1.52%	57.58%	140.00%	–
